From ChEMBL document CHEMBL1681659, “Discovery of novel positive allosteric modulators of the metabotropic glutamate receptor 5 (mGlu5)” (Bioorg Med Chem Lett, 2011)

How the values were obtained:
[1] = Chemical stability of the compound assessed as half life at pH 1; type: physicochemical; settings: buffer
[2] = Intrinsic clearance in rat liver microsome; type: ADME; settings: liver microsomes
[3] = Chemical stability of the compound assessed as half life at pH 10; type: physicochemical; settings: buffer
[4] = Intrinsic clearance in human liver microsome; type: ADME; settings: liver microsomes
[5] = Chemical stability assessed as compound remaining after 1 hr by photolysis assay; type: physicochemical; settings: read-out: Stability

- half-life [1]: 278 h
- microsomal CLint [2]: 95 µL/min/mg
- half-life [3]: 24 h
- microsomal CLint [4]: 120 µL/min/mg
- remaining at 1 h [5]: 0%
Compound: O=C1CCOc2nc(C#Cc3ccccc3)ccc21
